From patent US20230135093A1, “TRIAZOLYL DERIVATIVES AS GABA A ALPHA5 PAM” (Hoffmann-La Roche Inc., priority 2020, published 2023)
pKi: −log10 of the molar value.

How the values were obtained:
h-GABA-A α5β3γ2 [1] = biological target: T1, h-GABA-A α5β3γ2 (Homo sapiens, UniProt P18507+P31644); assay: [3H]flumazenil competition binding assay on membranes of HEK293 cells expressing GABAA receptors; settings: Table 1; displacement of [3H]-Flumazenil (0.5 nM), HEK293 cells expressing human receptors, means of two determinations
T1 construct: expressed in transfected cells; host or cells: Xenopus laevis oocytes, micro-injected with subunit RNA
In short: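 Competition for [3H]flumazenil (0.5 nM for α5 subunits) was measured at equilibrium (1 h, 4 °C, Krebs-tris buffer pH 7.5) on transiently transfected HEK293 membranes bearing human α5β3γ2 receptors, with 10^−5 M diazepam defining nonspecific binding. Ki values were derived from filtration and scintillation counting, averaged over duplicates.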

h-GABA-A α5β3γ2 [2] = biological target: T1, h-GABA-A α5β3γ2; assay: Two-electrode voltage clamp electrophysiology in Xenopus oocytes expressing GABAA receptors (modulation of GABA EC20 current); assay type: cell-based; settings: Table 1; for Efficacy (GABA) %: % modulation of GABA EC20 = 100*(Fold increase-1); for Fold increase h-GABA-A α5β3γ2 oocyte: Xenopus oocytes, GABA EC20, test compound at approximatively 30 fold its Ki
In short: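 GABA EC20 currents in human α5β3γ2-expressing Xenopus oocytes, voltage-clamped at −80 mV (room temperature, pH 7.4), measured with and without compound at ~30× Ki applied 0.5 min into the second GABA pulse. % modulation = 100×(fold increase−1), taken from the extremum of the current ratio trace; at least 3 oocytes per concentration.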

Row | SMILES | pKi (h-GABA-A α5β3γ2 [1]) | Efficacy (GABA) % (h-GABA-A α5β3γ2 [2]) | Fold increase h-GABA-A α5β3γ2 oocyte (h-GABA-A α5β3γ2 [2])
1 | Cn1nnc(-c2ccc(C(F)(F)F)cc2F)c1Cn1ncc(N2CC(OC3CCC3)C2)cc1=O [Example 77, 5-[3-(cyclo-butoxy)azetidin-1-yl]-2-[[5-[2-fluoro-4-(trifluoro-methyl)phenyl]-3-methyl-triazol-4-yl]methyl]pyridazin-3-one] | 7.74 | 66% | 1.66
2 | Cn1nnc(-c2ccc(Cl)cc2F)c1Cn1ncc(N2CC(Oc3ccncn3)C2)cc1=O [Example 78, 2-[[5-(4-chloro-2-fluoro-phenyl)-3-methyl-triazol-4-yl]methyl]-5-(3-pyrimidin-4-yloxyazetidin-1-yl)pyridazin-3-one] | 7.95 | 106% | 2.06
3 | Cn1nnc(-c2ccc(Cl)cc2F)c1Cn1ncc(N2CC(Oc3ccc(Cl)cn3)C2)cc1=O [Example 80, 2-[[5-(4-chloro-2-fluoro-phenyl)-3-methyl-triazol-4-yl]methyl]-5-[3-[(5-chloro-2-pyridyl)oxy]azetidin-1-yl]pyridazin-3-one] | 7.77 | 72% | 1.72
4 | COc1cc(-c2cnn(Cc3c(-c4ccc(C)nc4)nnn3C)c(=O)c2)ccn1 [Example 81, 5-(2-methoxy-4-pyridyl)-2-((3-methyl-5-(6-methyl-3-pyridyl)triazol-4-yl)methyl)pyridazin-3-one] | 7.70 | 110% | 2.1
5 | Cn1nnc(-c2ccc(C(F)(F)F)cc2F)c1Cn1ncc(N2CC(Oc3cccnn3)C2)cc1=O [Example 83, 2-[[5-[2-fluoro-4-(trifluoromethyl)phenyl]-3-methyl-triazol-4-yl]methyl]-5-(3-pyridazin-3-yloxyazetidin-1-yl)pyridazin-3-one] | 7.83 | 108% | 2.08
6 | CCn1nnc(-c2ccc(Cl)cc2F)c1Cn1ncc(N2CC(OC3CCC3)C2)cc1=O [Example 85, 2-[[5-(4-chloro-2-fluoro-phenyl)-3-ethyl-triazol-4-yl]methyl]-5-[3-(cyclobutoxy)azetidin-1-yl]pyridazin-3-one] | 7.73 | 143% | 2.43
7 | CCOC1CN(c2cnn(Cc3c(-c4ccc(Cl)cc4F)nnn3CC)c(=O)c2)C1 [Example 91, 2-[[5-(4-chloro-2-fluoro-phenyl)-3-ethyl-triazol-4-yl]methyl]-5-(3-ethoxyazetidin-1-yl)pyridazin-3-one] | 7.74 | 128% | 2.28
8 | Cn1nnc(-c2ccc(C(F)(F)F)cc2F)c1Cn1ncc(N2CC(Oc3ccc(Cl)nc3)C2)cc1=O [Example 93, 5-[3-[(6-chloro-3-pyridyl)oxy]azetidin-1-yl]-2-[[5-[2-fluoro-4-(trifluoromethyl)phenyl]-3-methyl-triazol-4-yl]methyl]pyridazin-3-one] | 8.03 | 79% | 1.79

The remaining compounds from weak to strong by pKi (h-GABA-A α5β3γ2 [1]), led by results:

Row | pKi (h-GABA-A α5β3γ2 [1]) | Efficacy (GABA) % (h-GABA-A α5β3γ2 [2]) | Fold increase h-GABA-A α5β3γ2 oocyte (h-GABA-A α5β3γ2 [2]) | SMILES
9 | 7.51 | 236% | 3.36 | COc1ncc(-c2cnn(Cc3c(-c4ccc(C)nc4)nnn3C)c(=O)c2)cc1Cl [Example 82, 5-(5-chloro-6-methoxy-3-pyridyl)-2-((3-methyl-5-(6-methyl-3-pyridyl)triazol-4-yl)methyl)pyridazin-3-one]
10 | 7.71 | 96% | 1.96 | CCn1nnc(-c2ccc(Cl)cc2F)c1Cn1ncc(N2CC(OC(C)C)C2)cc1=O [Example 90, 2-[[5-(4-chloro-2-fluoro-phenyl)-3-ethyl-triazol-4-yl]methyl]-5-(3-isopropoxyazetidin-1-yl)pyridazin-3-one]
11 | 7.90 | 115% | 2.15 | CCn1nnc(-c2ccc(Cl)cc2F)c1Cn1ncc(N2CC(OCC(F)(F)F)C2)cc1=O [Example 87, 2-[[5-(4-chloro-2-fluoro-phenyl)-3-ethyl-triazol-4-yl]methyl]-5-[3-(2,2,2-trifluoro-ethoxy)azetidin-1-yl]pyridazin-3-one]
12 | 7.95 | 58% | 1.58 | Cn1nnc(-c2ccc(Cl)cc2F)c1Cn1ncc(N2CC3(CCCCO3)C2)cc1=O [Example 95, 2-[[5-(4-chloro-2-fluoro-phenyl)-3-methyl-triazol-4-yl]methyl]-5-(5-oxa-2-azaspiro[3.5]nonan-2-yl)pyridazin-3-one]
13 | 7.96 | 88% | 1.88 | Cn1nnc(-c2ccc(Cl)cc2F)c1Cn1ncc(N2CC(Oc3cccnn3)C2)cc1=O [Example 79, 2-((5-(4-chloro-2-fluoro-phenyl)-3-methyl-triazol-4-yl)methyl)-5-(3-pyridazin-3-yloxyazetidin-1-yl)pyridazin-3-one]
14 | 7.97 | 136% | 2.36 | CCn1nnc(-c2ccc(Cl)cc2F)c1Cn1ncc(N2CC(OCC(F)F)C2)cc1=O [Example 86, 2-[[5-(4-chloro-2-fluoro-phenyl)-3-ethyl-triazol-4-yl]methyl]-5-[3-(2,2-difluoro-ethoxy)azetidin-1-yl]pyridazin-3-one]
15 | 7.98 | 127% | 2.27 | CC(C)N1CCN(c2cnn(Cc3c(-c4ccc(C(F)(F)F)cc4F)nnn3C)c(=O)c2)C[C@@H]1C [Example 94, 2-[[5-[2-fluoro-4-(trifluoromethyl)phenyl]-3-methyl-triazol-4-yl]methyl]-5-[(3S)-4-isopropyl-3-methyl-piperazin-1-yl]pyridazin-3-one]
16 | 7.99 | 73% | 1.73 | Cn1nnc(-c2ccc(C(F)(F)F)cc2F)c1Cn1ncc(N2CC(Oc3ccccn3)C2)cc1=O [Example 84, 2-[[5-[2-fluoro-4-(trifluoromethyl)phenyl]-3-methyl-triazol-4-yl]methyl]-5-[3-(2-pyridyloxy)azetidin-1-yl]pyridazin-3-one]
17 | 8.03 | 76% | 1.76 | Cn1nnc(-c2ccc(C(F)(F)F)cc2F)c1Cn1ncc(N2CC(Oc3cnccn3)C2)cc1=O [Example 89, 2-[[5-[2-fluoro-4-(trifluoromethyl)phenyl]-3-methyl-triazol-4-yl]methyl]-5-(3-pyrazin-2-yloxyazetidin-1-yl)pyridazin-3-one]
18 | 8.15 | 126% | 2.26 | CCn1nnc(-c2ccc(Cl)cc2F)c1Cn1ncc(N2CC(OC(F)F)C2)cc1=O [Example 88, 2-[[5-(4-chloro-2-fluoro-phenyl)-3-ethyl-triazol-4-yl]methyl]-5-[3-(difluoromethoxy)azetidin-1-yl]pyridazin-3-one]
19 | 8.25 | 159% | 2.59 | CCn1nnc(-c2ccc(Cl)cc2F)c1Cn1ncc(N2CCN(C(C)C)[C@@H](C)C2)cc1=O [Example 92, 2-[[5-(4-chloro-2-fluoro-phenyl)-3-ethyl-triazol-4-yl]methyl]-5-[(3S)-4-isopropyl-3-methyl-piperazin-1-yl]pyridazin-3-one]
